We go through 27 compounds from patent publication US10376480B2, “Biguanide derivative, a preparation method thereof, and a pharmaceutical composition containing the biguanide derivative as an active ingredient” (Immunomet Therapeutics Inc., priority 2010, dated 2019).

One data set relates to HCT116 cells. Kind of data set: Inhibition of cancer cell proliferation (MTT, GIC50). It counts as cell-based. The conditions noted are these: Homo sapiens, HCT-116, 48 hours incubation. The method, then: HCT116 cells derived from human colorectal cancer were used, and an effect of a biguanide derivative on the inhibition of cancer cell proliferation was confirmed by measuring a concentration value (cell growth inhibition concentration, GIC50) at which 50% of the cell growth was inhibited using a 3-(4,5-dimethylthiazol-2-yl)-2,5-diphenytetrazolium bromide (MTT) reagent.
First, HCT116 cells were put on a 96-well plate and cultured in a DMEM medium containing 10% bovine serum for 24 hours to each have cell count of approximately 5000. Subsequently, to obtain the GIC50 value of each compound, 100 μM (or 200 μM), 25 μM, 6.25 μM, 1.56 μM or 0.39 μM of the compound was treated to each culture medium and then incubated for 48 hours. To confirm living cells after treatment with the compound, MTT was added to each culture medium and further incubated for 3 hours. Generated formazane crystal was dissolved using dimethyl sulfoxide (DMSO) and absorbance of the solution was measured at 560 nm. After the 48-hour incubation, a ratio of a cell count cultured on a well plate not treated with the compound to a cell count on a well plate treated with compounds synthesized in the examples was indicated as cell viability (%) according to each administered concentration. A cell viability curve was plotted using the cell viability (%), and the calculated concentration value (GIC50) of the compound, at which 50% of the growth was inhibited was, to confirm an effect on the inhibition of cancer cell proliferation.

Data set [1] has as its system 5′-AMP-activated protein kinase (AMPK). Kind of data set: AMPK activation (AMPKα Thr172 phosphorylation immunoassay) in MCF7 cells. It counts as cell-based, human. Particulars: for AMPK Activation (phosphorylated AMPKα Thr172) / fold induction at 50 µM: MCF7 cells; for AMPK Activation (phosphorylated AMPKα Thr172): 24 hours; for fold induction at 50 µM: 24 h, 50 μM vs. 0 (cells without compound). The method, then:
MCF7 cells derived from human breast cancer cells were used, and an effect of a biguanide derivative on 5′-AMP-activated protein kinase (AMPK) activation was confirmed using an AMPKα immunoassay kit (Invitrogen, catalog No. KHO0651).
The MCF7 cells were put on a 6-well plate and incubated in a DMEM medium containing 10% fetal bovine serum in an incubator to which 5% CO2 was supplied to have a cell count of approximately 5×10^5. 50 μM of derivatives synthesized in the examples were treated to the each culture medium, and the cells were incubated for 24 hours. Subsequently, the cells were lysed by a method presented in the operation manual of the AMPKα immunoassay kit, and 20 μg of cell lysates were yielded through protein assay. A degree of phosphorylation of an AMPKα threonine 172nd residue (Thr172) from the cell lysates were confirmed according to a method presented in the operation manual of the AMPKα immunoassay kit to thereby obtain results.
In addition, an experiment was performed in the same manner as described in Experimental Example 2 using metformin as a control group, and the results of an effect on AMPK activation were compared to the effect on AMPK activation when 1 mM metformin was treated.

The structures appear in SMILES notation. Structures can show the parent of a compound that is named as a salt.

In general, IC50 refers to the concentration needed to halve the response being measured. In turn, `CCCCCCNC(=N)NC(=N)NCCC.Cl` [Example 1, N1-hexyl-N5-propyl Biguanide Hydrochloride] returned an IC50 in the data set on HCT116 cells of 23.8 µM. Further, the “AMPK Activation (phosphorylated AMPKα Thr172)” value (shortened to “AMPK Activation”) in data set [1] (50 μM compound) came out at 35.6. Besides, the fold induction at 50 µM in data set [1] (Homo sapiens) stood at 6.7.

For `CCCCCCNC(=N)NC(=N)NCC1CCCCC1.Cl` [Example 3, N1-hexyl-N5-cyclohexylmethyl Biguanide Hydrochloride], in the data set with HCT116 cells, the IC50 was over 100 µM. Besides, the “AMPK Activation” value in data set [1] (50 μM compound) amounted to 13.1. The fold induction at 50 µM in data set [1] (Homo sapiens) came out at 1.9.

`CCCCCCNC(=N)NC(=N)NCc1ccccc1.Cl` [Example 4, N1-hexyl-N5-benzyl Biguanide Hydrochloride]: in the data set with HCT116 cells, the midpoint of inhibition, the IC50, lay at 8.4 µM. Also, the “AMPK Activation” value in data set [1] (50 μM compound) was determined as 15.5. For the same compound, the fold induction at 50 µM in data set [1] (Homo sapiens) was 6.2.

As a reminder, the melting point is the temperature, or range, at which the solid turns liquid. With `Cl.N=C(NC(=N)Nc1ccc(Cl)cc1)Nc1ccc(Cl)cc1` [Example 5, N1,N5-bis(4-chlorophenyl) Biguanide Hydrochloride], the melting point lay in the range of 263 to 264 °C. The half-maximal inhibitory concentration (IC50) in the data set with HCT116 cells is 3.2 µM.

In turn, `Cl.N=C(NC(=N)Nc1cccc(Cl)c1)Nc1cccc(Cl)c1` [Example 6, N1,N5-bis(3-chlorophenyl) Biguanide Hydrochloride] registered a melting point of 129 to 131 °C. In addition, the IC50 in the data set on HCT116 cells is over 100 µM. Further, in data set [1] (50 μM compound), the “AMPK Activation” value is 4.6. Moreover, the fold induction at 50 µM in data set [1] (Homo sapiens) turned out to be 0.7.

Compound `COc1ccc(NC(=N)NC(=N)Nc2ccc(Cl)cc2)cc1` [Example 7, N1-(4-chloro)phenyl-N5-(4-methoxy)phenyl Biguanide Hydrochloride] gave an IC50 in the data set on HCT116 cells of 18.3 µM.

As for `COc1ccc(NC(=N)NC(=N)Nc2ccc(OC)c(Cl)c2)cc1Cl.Cl` [Example 8, N1,N5-bis(3-chloro-4-methoxyphenyl) Biguanide Hydrochloride], the melting point is 203 to 204 °C. In the data set with HCT116 cells, half-maximal inhibition (IC50) was put at 17 µM.

Turning to `Cl.N=C(NC(=N)Nc1ccc(Cl)c(Cl)c1)Nc1ccc(Cl)c(Cl)c1` [Example 9, N1,N5-bis(3,4-dichlorophenyl) Biguanide Hydrochloride], the melting point lay within 255 to 257 °C. In the data set with HCT116 cells, this compound came in with an IC50 of 5.9 µM.

For `Cl.N=C(NC(=N)Nc1cc(Cl)cc(Cl)c1)Nc1cc(Cl)cc(Cl)c1` [Example 10, N1,N5-bis(3,5-dichlorophenyl) Biguanide Hydrochloride], the melting point fell in the range of 250 to 251 °C. In the data set with HCT116 cells, the IC50 turned out to be 6.3 µM.

`Cl.N=C(NC(=N)Nc1ccc(Br)cc1)Nc1ccc(Br)cc1` [Example 11, N1,N5-bis(4-bromophenyl) Biguanide Hydrochloride]: the melting point lay in the range of 242 to 243 °C. Moreover, the IC50 in the data set with HCT116 cells came out at 3.1 µM.

`Cl.N=C(NCc1ccccc1)NC(=N)NCc1cccnc1` [Example 12, N1-benzyl-N5-(pyridine-3-yl)methyl Biguanide Hydrochloride] gave a melting point of 138 to 140 °C. In the data set on HCT116 cells, this compound gave an IC50 of over 200 µM. In addition, the “AMPK Activation” value in data set [1] (50 μM compound) amounted to 7.8. Moreover, the fold induction at 50 µM in data set [1] (Homo sapiens) was 1.5.

On to `CCCNC(=N)NC(=N)NCCc1ccccc1.Cl` [Example 13, N1-(phenethyl)-N5-propyl Biguanide Hydrochloride], for which the melting point was 126 to 128 °C. The IC50 in the data set on HCT116 cells stood at 47.6 µM. In data set [1] (50 μM compound), the “AMPK Activation” value was 36.2. In addition, the fold induction at 50 µM in data set [1] (Homo sapiens) was 6.8.

On to `Cl.N=C(NCCc1ccccc1)NC(=N)NCC1CC1` [Example 14, N1-(phenethyl)-N5-cyclopropylmethyl Biguanide Hydrochloride], for which the melting point is 143 to 146 °C. In the data set on HCT116 cells, this compound returned an IC50 of 47 µM. Moreover, the “AMPK Activation” value in data set [1] (50 μM compound) is listed as 31.2. In data set [1] (Homo sapiens), the fold induction at 50 µM is 5.9.

`Cl.N=C(NCCc1ccccc1)NC(=N)NC1CCCCCC1` [Example 15, N1-(phenethyl)-N5-cycloheptyl Biguanide Hydrochloride] displayed a melting point of 135 to 137 °C. In the data set on HCT116 cells, this compound returned a concentration for half-maximal inhibition (IC50) of 17.2 µM. Further, the “AMPK Activation” value in data set [1] (50 μM compound) is on record as 7.0. Moreover, the fold induction at 50 µM in data set [1] (Homo sapiens) is 1.5.

The compound `Cl.N=C(NCCc1ccccc1)NC(=N)NCCc1ccccc1` [Example 16, N1,N5-bis(phenethyl) Biguanide Hydrochloride] gave a melting point of 204 to 205 °C. Also, in the data set with HCT116 cells, the IC50 was over 100 µM. The “AMPK Activation” value in data set [1] (50 μM compound) worked out at 4.7. In data set [1] (Homo sapiens), the fold induction at 50 µM was determined as 0.7.

As to `CNC(=N)NC(=N)N(C)C.Cl` [Example 17, N1,N1,N5-trimethyl Biguanide Hydrochloride], the melting point lay within 175 to 177 °C. The IC50 in the data set on HCT116 cells is over 200 µM. For the same compound, the “AMPK Activation” value in data set [1] (50 μM compound) amounted to 5.5. Moreover, in data set [1] (Homo sapiens), the fold induction at 50 µM worked out at 1.1.

In turn, `CCCCNC(=N)NC(=N)N(C)C.Cl` [Example 18, N1,N1-dimethyl-N5-butyl Biguanide Hydrochloride] registered a melting point of 131 to 133 °C. In the data set on HCT116 cells, this compound showed a 50% inhibitory concentration (IC50) of over 200 µM. Also, in data set [1] (50 μM compound), the “AMPK Activation” value came out at 4.6. Further, the fold induction at 50 µM in data set [1] (Homo sapiens) turned out to be 0.9.

On to `CCC(C)NC(=N)NC(=N)N(C)C.Cl` (centres unmarked) [Example 19, N1,N1-dimethyl-N5-(butane-2-yl) Biguanide Hydrochloride], for which the melting point was in the range of 110 to 112 °C. The IC50 in the data set with HCT116 cells is over 200 µM. Moreover, the “AMPK Activation” value in data set [1] (50 μM compound) worked out at 3.6. Besides, the fold induction at 50 µM in data set [1] (Homo sapiens) came out at 0.7.

On to `CN(C)C(=N)NC(=N)NC(C)(C)C.Cl` [Example 20, N1,N1-dimethyl-N5-t-butyl Biguanide Hydrochloride], for which the melting point was 186 to 187 °C. The same compound showed an IC50 with HCT116 cells of over 200 µM. The “AMPK Activation” value in data set [1] (50 μM compound) stood at 4.6. For the same compound, the fold induction at 50 µM in data set [1] (Homo sapiens) is 0.9.

For the compound `CCCCCNC(=N)NC(=N)N(C)C.Cl` [Example 21, N1,N1-dimethyl-N5-pentyl Biguanide Hydrochloride], the melting point was in the range of 131 to 133 °C. This compound also had a 50% inhibitory concentration (IC50) with HCT116 cells of over 200 µM. For the same compound, the “AMPK Activation” value in data set [1] (50 μM compound) was 5.6. Also, the fold induction at 50 µM in data set [1] (Homo sapiens) amounted to 1.1.

Regarding `COC(=O)CCNC(=N)NC(=N)N(C)C.Cl` [Example 22, N1,N1-dimethyl-N5-(methoxycarbonylethyl)biguanide Hydrochloride], the melting point was in the range of 100 to 102 °C. The compound further returned an IC50 in the data set with HCT116 cells of over 200 µM. Further, the “AMPK Activation” value in data set [1] (50 μM compound) is 3.2. Besides, the fold induction at 50 µM in data set [1] (Homo sapiens) was found to be 0.6.

For the compound `CN(C)C(=N)NC(=N)NC1CCCCCC1.Cl` [Example 23, N1,N1-dimethyl-N5-cycloheptyl Biguanide Hydrochloride], the melting point lay in the range of 132 to 133 °C. The IC50 in the data set on HCT116 cells was over 200 µM. Besides, the “AMPK Activation” value in data set [1] (50 μM compound) is 5.4. Besides, the fold induction at 50 µM in data set [1] (Homo sapiens) amounted to 1.

`CN(C)C(=N)NC(=N)NCC1CC1.Cl` [Example 24, N1,N1-dimethyl-N5-cyclopropylmethyl Biguanide Hydrochloride]: the melting point lay within 117 to 118 °C. In the data set on HCT116 cells, this compound gave an IC50 of over 200 µM. Also, the “AMPK Activation” value in data set [1] (50 μM compound) is 5.1. Also, the fold induction at 50 µM in data set [1] (Homo sapiens) stood at 1.

`CN(C)C(=N)NC(=N)Nc1ccc(Br)cc1.Cl` [Example 25, N1,N1-dimethyl-N5-(4-bromo)phenyl Biguanide Hydrochloride] showed a melting point of 272 to 273 °C. In the data set on HCT116 cells, this compound came in with an IC50 of over 100 µM. The “AMPK Activation” value in data set [1] (50 μM compound) stood at 23.1. For the same compound, the fold induction at 50 µM in data set [1] (Homo sapiens) was 4.4.

Compound `CCCN(CCC)C(=N)NC(=N)Nc1cccc(Cl)c1.Cl` [Example 31, N1,N1-dipropyl-N5-(3-chloro)phenyl Biguanide Hydrochloride] returned a melting point of 201 to 202 °C. Further, 7.6 µM corresponded to half-maximal inhibition with HCT116 cells (IC50).

The compound `CCCCCCN(CCCCCC)C(=N)NC(=N)Nc1cccc(Cl)c1` [Example 34, N1,N1-dihexyl-N5-(3-chloro)phenyl Biguanide Hydrochloride] showed an IC50 with HCT116 cells of 7.8 µM.

`CN(C)C(=N)N=C(N)N` [Metformin HCl, reference compound] returned an IC50 in the data set on HCT116 cells of 2170 µM. Moreover, the “AMPK Activation” value in data set [1] (1 mM metformin) is 21.5 (@ 1 mM). Further, the fold induction at 1000 µM in data set [1] (Homo sapiens, MCF7, 24 h, read-out: AMPK Activation fold) came out at 3.2.
